Assay results as given in patent US20230348426A1, “OXOPYRROLIDINE FPR2 AGONISTS” (Bristol-Myers Squibb Company, priority 2020, published 2023).

Assays:
human FPR2 = human FPR2 (Homo sapiens (Human), UniProt P25090); assay: FPR2 cyclic adenosine monophosphate (cAMP) assay; format: cell-based; settings: CHO cells overexpressing human FPR2; forskolin 5 µM; inhibition of cAMP production; read-out: hFPR2 cAMP2 EC50
Summary of the method: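 Inhibition of forskolin-driven (5 µM) cAMP, with 200 µM IBMX, measured in human FPR2-expressing CHO cells, 2,000 per well, 30 min at room temperature; compounds tested 0.020 nM to 100 µM in 1% DMSO. HTRF 665/590 ratio converted to cAMP via calibration curve, then 4-parameter fit.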

human FPR1 = human FPR1 (Homo sapiens (Human), UniProt P21462); assay: FPR1 cyclic adenosine monophosphate (cAMP) assay; format: cell-based; settings: CHO cells overexpressing human FPR1; forskolin 10 µM; inhibition of cAMP production; read-out: hFPR1 cAMP EC50
Chain of human FPR1 (P21462 whole entry): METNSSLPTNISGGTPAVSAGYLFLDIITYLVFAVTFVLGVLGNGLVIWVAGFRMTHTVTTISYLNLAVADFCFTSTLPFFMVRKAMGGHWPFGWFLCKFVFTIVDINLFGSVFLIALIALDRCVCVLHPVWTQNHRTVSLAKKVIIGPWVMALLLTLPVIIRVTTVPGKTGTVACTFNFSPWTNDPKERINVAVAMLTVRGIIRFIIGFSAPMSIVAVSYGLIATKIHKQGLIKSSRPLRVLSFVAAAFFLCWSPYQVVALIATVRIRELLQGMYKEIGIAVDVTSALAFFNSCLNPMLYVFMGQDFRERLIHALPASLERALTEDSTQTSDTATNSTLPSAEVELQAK
Summary of the method: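 Human FPR1-expressing CHO cells were used at 4,000 per well, with compound at 0.020 nM–100 µM in 1% DMSO. Potency came from a 4-parameter logistic fit.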

Chain of human FPR2 (P25090 whole entry): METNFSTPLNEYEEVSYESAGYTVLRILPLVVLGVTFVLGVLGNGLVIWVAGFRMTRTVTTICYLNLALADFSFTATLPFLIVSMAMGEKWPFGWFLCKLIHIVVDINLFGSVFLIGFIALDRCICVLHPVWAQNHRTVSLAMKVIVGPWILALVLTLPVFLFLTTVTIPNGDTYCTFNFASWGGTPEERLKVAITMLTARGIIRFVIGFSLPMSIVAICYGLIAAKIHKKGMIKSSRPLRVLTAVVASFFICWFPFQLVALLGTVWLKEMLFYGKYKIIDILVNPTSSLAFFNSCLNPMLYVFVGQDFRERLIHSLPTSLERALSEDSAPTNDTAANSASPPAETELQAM

EC50 (human FPR2)	EC50 (human FPR1)	Structure (SMILES)
13.5 nM	33 nM	COc1cc(F)c([C@@H]2CN(c3c(C)ccn(C4CCNC4)c3=O)C(=O)[C@H]2NC(=O)c2ccc(OC(F)F)cc2)c(F)c1 (stereo partly shown) [Example 612]
7.6 nM	93 nM	COCCOc1ncccc1N1C[C@@H](c2c(F)cc(OC)cc2F)[C@H](NC(=O)c2ccc(OC(F)F)cc2)C1=O [Example 412]
5.5 nM	36 nM	COc1ccc([C@@H]2CN(c3cccn(CC(C)O)c3=O)C(=O)[C@H]2NC(=O)c2ccc(Cl)cc2)cc1 (stereo partly shown) [Example 391]
5.2 nM	290 nM	COCCn1cccc(N2C(=O)[C@@H](NC(=O)c3ccc(OC(F)(F)F)cc3)[C@H](c3c(F)cc(OC)cc3F)[C@H]2C)c1=O [Example 200]
7.7 nM	1600 nM	COc1cc(F)c([C@@H]2CN(c3cc(F)cc(C(C)(C)O)c3)C(=O)[C@H]2NC(=O)c2ccc(Cl)cc2)c(F)c1 [Example 267]
8.4 nM	19 nM	COCC(C(=O)N(C)C)n1cccc(N2C[C@@H](c3c(F)cc(OC)cc3F)[C@H](NC(=O)c3ccc(OC(F)(F)F)cc3)C2=O)c1=O (stereo partly shown) [Example 283]
< 5 nM	< 5 nM	COCC(CO)n1ccc(C)c(N2C[C@@H](c3ccc(OC)cc3)[C@H](NC(=O)c3ccc(OC(F)F)cc3)C2=O)c1=O (stereo partly shown) [Example 389]
1.4 nM	4 nM	COCCn1cccc(N2C[C@@H](c3ccc(OC)cc3F)[C@H](NC(=O)c3ccc(OC(F)(F)F)cc3)C2=O)c1=O [Example 56]
21.8 nM	660 nM	COc1cc(N2C[C@@H](c3c(F)cc(OC)cc3F)[C@H](NC(=O)c3ccc(OC(F)(F)F)cc3)C2=O)nc(C(C)(C)O)c1 [Example 584]
6.2 nM	88 nM	CCn1cc(F)cc(N2C[C@@H](c3c(F)cc(OC)cc3F)[C@H](NC(=O)c3ccc(OC(F)(F)F)cc3)C2=O)c1=O [Example 230]
1 nM	10 nM	COCC(CN)n1cccc(N2C[C@@H](c3c(F)cc(OC)cc3F)[C@H](NC(=O)c3ccc(OC(F)F)cc3)C2=O)c1=O (stereo partly shown) [Example 44]
4.9 nM	38 nM	COc1cc(F)c([C@@H]2CN(c3cccn(C(F)F)c3=O)C(=O)[C@H]2NC(=O)c2ccc(OC(F)(F)F)cc2)c(F)c1 [Example 188]
7 nM	> 5000 nM	COc1cc(F)c([C@@H]2CN(c3c(C#N)ccn(C)c3=O)C(=O)[C@H]2NC(=O)c2ccc(Cl)cc2)c(F)c1 [Example 251]
9.6 nM	90 nM	COc1cc(F)c([C@@H]2CN(c3cccn(C4COC4)c3=O)C(=O)[C@H]2NC(=O)c2ccc(OC(F)F)cc2)c(F)c1 [Example 304]
6 nM	33 nM	COc1cc(F)c([C@@H]2CN(c3c(C)ccn(CC4CCO4)c3=O)C(=O)[C@H]2NC(=O)c2ccc(Cl)cc2)c(F)c1 (stereo partly shown) [Example 614]
2.6 nM	16 nM	COc1ccc([C@@H]2CN(c3cccn(CC(F)F)c3=O)C(=O)[C@H]2NC(=O)c2ccc(OC(F)F)cc2)cc1 [Example 91]
4.1 nM	74 nM	CCn1cccc(N2C[C@@H](c3c(F)cc(OC)cc3F)[C@H](NC(=O)c3ccc(C(F)(F)F)cc3)C2=O)c1=O [Example 159]

Second part, the compound before the results:

Structure (SMILES)	EC50 (human FPR2)	EC50 (human FPR1)
COc1ccc([C@@H]2CN(c3c(C)ccn(CCO)c3=O)C(=O)[C@H]2NC(=O)c2ccc(OC(F)(F)F)cc2)c(F)c1 [Example 375]	1.6 nM	3 nM
COc1ccc([C@@H]2CN(c3c(C)ccn(CC4CCOCC4)c3=O)C(=O)[C@H]2NC(=O)c2ccc(OC(F)F)cc2)cc1 [Example 699]	6.6 nM	3 nM
COCC(CO)n1cccc(N2C[C@@H](c3ccc(Cl)cc3)[C@H](NC(=O)c3ccc(Cl)cc3)C2=O)c1=O (stereo partly shown) [Example 406]	2.9 nM	9 nM
CCn1cccc(N2C(=O)[C@@H](NC(=O)c3ccc(OC(F)(F)F)cc3)[C@H](c3c(F)cc(OC)cc3F)[C@H]2C)c1=O [Example 242]	6.7 nM	110 nM
O=C(N[C@@H]1C(=O)N(c2cccn(CCO)c2=O)C[C@H]1c1ccc(Cl)cc1)c1ccc(OC(F)F)cc1 [Example 110]	2.9 nM	20 nM
COc1cc(F)c([C@@H]2CN(c3c(C)ccn(CC(=O)N4CCOCC4)c3=O)C(=O)[C@H]2NC(=O)c2ccc(Cl)cc2)c(F)c1 [Example 379]	2.6 nM	320 nM
COc1cc(F)c([C@@H]2CN(c3nc(C)ccc3C(F)(F)F)C(=O)[C@H]2NC(=O)c2ccc(OC(F)F)cc2)c(F)c1 [Example 247]	6.9 nM	250 nM
COc1cc(F)c([C@@H]2CN(c3c(C)ccn(C4CCS(=O)(=O)CC4)c3=O)C(=O)[C@H]2NC(=O)c2ccc(OC(F)(F)F)cc2)c(F)c1 [Example 627]	8.6 nM	2 nM
COc1ccc([C@@H]2CN(c3c(C)ccn(CC(F)F)c3=O)C(=O)[C@H]2NC(=O)c2ccc(OC(F)F)cc2)c(F)c1 [Example 376]	0.4 nM	4 nM
COc1cc(F)c([C@@H]2CN(c3nc(N4C[C@@H](C)N(C)[C@@H](C)C4)ccc3C#N)C(=O)[C@H]2NC(=O)c2ccc(Cl)cc2)c(F)c1 [Example 318]	10 nM	> 10000 nM
COCC(CO)n1cccc(N2C[C@@H](c3ccc(Cl)cc3)[C@H](NC(=O)c3ccc(OC(F)(F)F)cc3)C2=O)c1=O (stereo partly shown) [Example 154]	4 nM	3.3 nM
COc1cc(F)c([C@@H]2CN(c3cccc(N4CCN(S(C)(=O)=O)CC4)n3)C(=O)[C@H]2NC(=O)c2ccc(OC(F)F)cc2)c(F)c1 [Example 567]	9.6 nM	> 5000 nM
COc1cc(N2C[C@@H](c3c(F)cc(OC)cc3F)[C@H](NC(=O)c3ccc(OC(F)F)cc3)C2=O)nc(N2C[C@@H]3C[C@H]2CN3C)c1 [Example 285]	2.9 nM	220 nM
COc1cc(F)c([C@@H]2CN(c3cccnc3OC(F)F)C(=O)[C@H]2NC(=O)c2ccc(Cl)cc2)c(F)c1 [Example 123]	3.2 nM	41 nM
COc1cc(C2CCOCC2)nc(N2C(=O)[C@@H](NC(=O)c3ccc(OC(F)F)cc3)[C@H](c3c(F)cc(OC)cc3F)[C@H]2C)c1 [Example 539]	6.8 nM	470 nM
COCCn1cncc(N2C[C@@H](c3c(F)cc(OC)cc3F)[C@H](NC(=O)c3ccc(OC(F)F)cc3)C2=O)c1=O [Example 370]	3.7 nM	1400 nM
COc1cc(F)c([C@@H]2CN(c3cccc(N4C[C@H]5C[C@@H]4CO5)n3)C(=O)[C@H]2NC(=O)c2ccc(OC(F)F)cc2)c(F)c1 [Example 211]	5.5 nM	25 nM
COc1cc(N2CCN(C)CC2)nc(N2C[C@@H](c3c(F)cc(OC)cc3F)[C@H](NC(=O)c3ccc(OC(F)F)cc3)C2=O)c1 [Example 35]	3.1 nM	> 10000 nM
COc1cc(F)c([C@@H]2CN(c3cccn(CC(F)F)c3=O)C(=O)[C@H]2NC(=O)c2ccc(C#N)cc2)c(F)c1 [Example 321]	10 nM	570 nM
COc1cc(F)c([C@@H]2CN(c3c(C)ccn(CC4CCOC4)c3=O)C(=O)[C@H]2NC(=O)c2ccc(OC(F)F)cc2)c(F)c1 (stereo partly shown) [Example 695]	3.5 nM	4 nM
COc1cc(F)c([C@@H]2CN(c3c(C)ccn(CC(C)O)c3=O)C(=O)[C@H]2NC(=O)c2ccc(OC(F)F)cc2)c(F)c1 (stereo partly shown) [Example 360]	3.2 nM	18 nM
